# Patent US11102978B2, “Herbicide combination” (priority 2016, dated 2021)
# Counter-ions that a name gives are not always drawn.
# Assays:
# Type in all cases: in vivo
# [1] = tested on: Papaver rhoeas (weed code—PAPRH); experiment: Field trial, weed control of Papaver rhoeas in wheat; settings: in Triticum aesti, 12 DAA
# Protocol: (§1) Studies were conducted to compare the weed controlling activity of the combination of bensulfuron methyl, metsulfuron methyl with herbicides selected from the classes of synthetic auxins, photosystem II inhibitors, very long chain fatty acid inhibitor, carotene biosynthesis inhibitor and compare its observed efficacy with the “expected” efficacy when bensulfuron methyl and metsulfuron methyl and select individual herbicides were used to treat both dicotyledonous and monocotyledonous weeds. Any difference between the observed and “expected” efficacy could be attributed to synergy between the two compounds in the control of […] weeds. The expected efficacy of a combination of bensulfuron methyl, metsulfuron methyl with herbicides selected from the classes of synthetic auxins, photosystem II inhibitors, very long chain fatty acid inhibitor, carotene biosynthesis inhibitor was calculated using the well-established Colby method.
# (§2) In the Colby method, the expected (or predicted) response of a combination of herbicides is calculated by taking the product of the observed response for each individual component of the combination when applied alone divided by 100 and subtracting this value from the sum of the observed response for each component when applied alone. An unexpected enhancement in efficacy of the combination is then determined by comparing the observed response of the combination to the expected (or predicted) response as calculated from the observed response of each individual component alone. If the observed response of the combination is greater than the expected (or predicted) response, or stated conversely, if the difference between the observed and expected response is greater than zero, then the combination is said to be synergistic or unexpectedly effective. (Colby, S. R., Weeds, 1967(15), p. 20-22) The Colby method requires only a single dose of each herbicide applied alone and the mixture of both doses. The formula used to calculate the expected efficacy (EE) which was compared with the observed efficacy (OE) to determine the efficacy of the present invention is explained hereinbelow: EE=(B efficacy+A efficacy−(B efficacy×A efficacy)/100)
# The weed control activity of the individual herbicides of the invention and their combinations were evaluated on weeds such as Viola arvensis (weed code—VIOAR), Veronica persica (weed code—VERPE), Papaver rhoeas (weed code: PAPRH), Galium aparine (weed code—GALAP), Matricaria recutita weed code—MATCH), Veronica hederifolia (weed code—VERHE) and Viola arvensis (weed code—VIOAR.). The trial was carried out in Randomized Complete Block (RCB) method, all field trials were conducted using this method. Each trial were replicated four times and conducted under GEP guidelines. Application volumes were varied for each mixture. Such field trials were carried out at various locations so as to generate independent data, the locations were chosen randomly across European nations. Bensulfuron methyl and Metsulfuron methyl and selected herbicides were sprayed according to their recommended dosage.
# Further field trials were carried out to test the synergy of the combination bensulfuron methyl, metsulfuron methyl and synthetic auxin fluroxypyr. The field trials were carried out at various locations in Europe during spring. […] The target weed was Papaver rhoeas (weed code—PAPRH) and the results are recorded in the table below:
# Field trials were carried out test the synergy of the combination bensulfuron methyl, metsulfuron methyl, and synthetic auxin 2,4-D. The field trials were carried out at various locations in Europe during spring. […] The target weed were Senecio vulgaris (weed code—SENVU), Rapistrum rugosum (weed code—RASRU), Papaver rhoeas (weed code—PAPRH), Viola arvensis (Weed code—VIOAR), Roemeria hybrida (Weed code—is ROEHY), Galium aparine (Weed code—GALAP) and the results are recorded in the tables 3 and 4 below: […]
# [2] = tested on: Galium aparine (Weed code—GALAP); experiment: Field trial, weed control of Galium aparine in wheat; settings: in Triticum aesti, 16 DAA, dose 0.08 g (bensulfuron methyl + metsulfuron methyl)
# Protocol: as §2, with “effective.” for “effective. (Colby, S. R., Weeds, 1967(15), p. 20-22) The Colby method requires only a single dose of each herbicide applied alone and the mixture of both doses. The formula used to calculate the expected efficacy (EE) which was compared with the observed efficacy (OE) to determine the efficacy of the present invention is explained hereinbelow: EE=(B efficacy+A efficacy−(B efficacy×A efficacy)/100)”
# (§3) The trial was carried out in Randomized Complete Block (RCB) method, all field trials were conducted using this method. Each trial were replicated four times and conducted under GEP guidelines. Application volumes were varied for each mixture.
# [3] = tested on: weeds in general (TTTTT); experiment: Field trial, control of weeds in general in wheat; settings: in Triticum aesti, dose 50 g + 4 g (bensulfuron methyl + metsulfuron methyl); for % Weed control TTTTT, Actual: 12 DAA
# Protocol: as §2, with “effective.” for “effective. (Colby, S. R., Weeds, 1967(15), p. 20-22) The Colby method requires only a single dose of each herbicide applied alone and the mixture of both doses. The formula used to calculate the expected efficacy (EE) which was compared with the observed efficacy (OE) to determine the efficacy of the present invention is explained hereinbelow: EE=(B efficacy+A efficacy−(B efficacy×A efficacy)/100)”
# as §3
# [4] = tested on: Viola arvensis (weed code—VIOAR); experiment: Field trial, weed control of Viola arvensis in wheat; settings: in Triticum aesti
# Protocol: as §1
# (§4) In the Colby method, the expected (or predicted) response of a combination of herbicides is calculated by taking the product of the observed response for each individual component of the combination when applied alone divided by 100 and subtracting this value from the sum of the observed response for each component when applied alone. An unexpected enhancement in efficacy of the combination is then determined by comparing the observed response of the combination to the expected (or predicted) response as calculated from the observed response of each individual component alone. […]
# (§5) The weed control activity of the individual herbicides of the invention and their combinations were evaluated on weeds such as Viola arvensis (weed code—VIOAR), Veronica persica (weed code—VERPE), Papaver rhoeas (weed code: PAPRH), Galium aparine (weed code—GALAP), Matricaria recutita weed code—MATCH), Veronica hederifolia (weed code—VERHE) and Viola arvensis (weed code—VIOAR.). […]
# [5] = tested on: Veronica persica (weed code—VERPE); experiment: Field trial, weed control of Veronica persica in wheat; settings: in Triticum aesti, dose 50 g + 4 g (bensulfuron methyl + metsulfuron methyl), 125 g (fluroxypyr), 50 g + 4 g + 125 g (mix)
# Protocol: as §1
# (§6) In the Colby method, the expected (or predicted) response of a combination of herbicides is calculated by taking the product of the observed response for each individual component of the combination when applied alone divided by 100 and subtracting this value from the sum of the observed response for each component when applied alone. […]
# [6] = tested on: Rapistrum rugosum (weed code—RASRU); experiment: Field trial, weed control of Rapistrum rugosum in wheat; settings: in Triticum aesti
# Protocol: as §1, §4, §5
# [7] = tested on: Senecio vulgaris (weed code—SENVU); experiment: Field trial, weed control of Senecio vulgaris in wheat; settings: in Triticum aesti, 9 DAA; dose 0.1 Kg/ha (bensulfuron methyl + metsulfuron methyl), 2.6 l/ha (2,4D dimethylamine salt), 2.6 l/ha + 0.1 Kg/ha (mix)
# Protocol: as §1, §6
# [8] = tested on: Roemeria hybrida (Weed code—is ROEHY); experiment: Field trial, weed control of Roemeria hybrida in wheat; settings: in Triticum aesti, 15 DAA; dose 0.1 Kg/ha (bensulfuron methyl + metsulfuron methyl), 2.6 l/ha (2,4D dimethylamine salt), 0.1 Kg/ha + 2.6 l/ha (mix)
# Protocol: as §1, §6
# [9] = Table 2, PAPRH, dose bensulfuron methyl 50 g, metsulfuron methyl 4 g, fluroxypyr 125 g, mix 50 g + 4 g + 125 g
# [10] = Table 2, second PAPRH column pair, dose bensulfuron methyl 50 g, metsulfuron methyl 4 g, fluroxypyr 125 g, mix 50 g + 4 g + 125 g
smiles,measurement,setting,value
"COC(=O)c1ccccc1S(=O)(=O)NC(=O)Nc1nc(C)nc(OC)n1 [Metsulfuron methyl, methyl 2-(4-methoxy-6-methyl-1,3,5-triazin-2-ylcarbamoylsulfamoyl)benzoate]","% Weed control PAPRH, Actual",[1]; [9],48%
same,"% Weed control PAPRH, Actual",[1]; [10],48.8%
"COC(=O)c1ccccc1CS(=O)(=O)NC(=O)Nc1nc(OC)cc(OC)n1 [Bensulfuron methyl, methyl α-[(4,6-dimethoxypyrimidin-2-ylcarbamoyl)sulfamoyl]-o-toluate]","% Weed control PAPRH, Actual",[1]; [9],50%
same,"% Weed control PAPRH, Actual",[1]; [10],50%
"O=C(Nc1ccc(F)cc1F)c1cccnc1Oc1cccc(C(F)(F)F)c1 [Diflufenican, 2′,4′-difluoro-2-(α,α,α-trifluoro-m-tolyloxy)nicotinanilide]","% Weed control GALAP, Actual","[2]; Table 7, first column pair, 0.05 g (diflufenican), 0.08 g + 0.05 g (mix)",13%
same,"% Weed control GALAP, Actual","[2]; Table 7, second column pair, 0.08 g (diflufenican), 0.08 g + 0.08 g (mix)",20%
same,"% Weed control TTTTT, Actual","[3]; Table 6, first column pair, 0.12 g (diflufenican), 50 g + 4 g + 0.12 g (mix)",11.7%
same,"% Weed control TTTTT, Actual","[3]; Table 6, second column pair, 0.16 g (diflufenican), 50 g + 4 g + 0.16 g (mix)",3.0%
same,"% Weed control TTTT, Actual","[3]; Table 6, third column pair, 12 DAA T, 0.16 g (diflufenican), 50 g + 4 g + 0.16 g (mix)",15%
"Nc1c(Cl)c(F)nc(OCC(=O)O)c1Cl [Fluroxypyr, 4-amino-3,5-dichloro-6-fluoro-2-pyridyloxyacetic acid]","% Weed control VIOAR, Actual","[4]; 20 DAA, dose 50 g + 4 g (bensulfuron methyl + metsulfuron methyl), 125 g (fluroxypyr), 50 g + 4 g + 125 g (mix)",31%
same,"% Weed control VIOAR, Actual","[4]; 57 DAA, dose 50 g + 4 g (bensulfuron methyl + metsulfuron methyl), 125 g (fluroxypyr), 50 g + 4 g + 125 g (mix)",28%
same,"% Weed control VERPE, Actual",[5]; 20 DAA,51%
same,"% Weed control VERPE, Actual",[5]; 57 DAA,55%
same,"% Weed control PAPRH, Actual",[1]; [9],28%
same,"% Weed control PAPRH, Actual",[1]; [10],79%
"Cc1cc(Cl)ccc1OCC(=O)O [MCPA dimethylamine salt, 4-chloro-2-methylphenoxy acetic acid]","% Weed control PAPRH, Actual","[1]; Table 5, dose 0.1 kg/ha A (bensulfuron methyl + metsulfuron methyl), 4 l/ha (MCPA dimethylamine salt), 0.1 kg/ha A + 4 l/ha (mix)",63.8%
same,"% Weed control RASRU, Actual","[6]; Table 5, 12 DAA, dose 0.1 kg/ha A (bensulfuron methyl + metsulfuron methyl), 4 l/ha (MCPA dimethylamine salt), 0.1 kg/ha A + 4 l/ha (mix)",34.8%
same,"% Weed control RASRU, Actual","[6]; Table 5, 56 DAA, dose 0.1 kg/ha A (bensulfuron methyl + metsulfuron methyl), 4 l/ha (MCPA dimethylamine salt), 0.1 kg/ha A + 4 l/ha (mix)",88.3%
"O=C(O)COc1ccc(Cl)cc1Cl [2,4D dimethylamine salt, 2,4-Dichlorophenoxy acetic acid]","% Weed control VIOAR, Actual","[4]; Table 4, 12 DAA, dose 0.1 Kg/ha (bensulfuron methyl + metsulfuron methyl), 2.6 l/ha (2,4D dimethylamine salt), 0.1 Kg/ha + 2.6 l/ha (mix)",18.8%
same,"% Weed control PAPRH, Actual","[1]; Table 3, dose 0.1 Kg/ha (bensulfuron methyl + metsulfuron methyl), 2.6 l/ha (2,4D dimethylamine salt), 2.6 l/ha + 0.1 Kg/ha (mix)",37.5%
same,"% Weed control SENVU, Actual",[7],62.5%
same,"% Weed control ROEHY, Actual",[8],37.5%
same,"% Weed control RASRU, Actual","[6]; Table 3, 12 DAA, dose 0.1 Kg/ha (bensulfuron methyl + metsulfuron methyl), 2.6 l/ha (2,4D dimethylamine salt), 2.6 l/ha + 0.1 Kg/ha (mix)",32.4%
